The numbers were not newly measured in patent publication US20120201914A1, “Method and Composition for Improving Animal Oral Health” (priority 2011, published 2012), which cites them from elsewhere.

For the series, the system named is various oral pathogens, such as S. mutans, C. albicans, A. actinomycetemcomitans, F. nucleatum, and P. gingivalis. The following applies: against various oral pathogens; recent studies.

On to `CC/C=C\C/C=C\C/C=C\CCCCCCCC(=O)O` [ALA, α-linolenic acid], for which the antibacterial activity result is on record as “antibacterial activities”.

`CC/C=C\C/C=C\C/C=C\CCCCCCCC(=O)OCC` [ALA-EE]: the antibacterial activity entry was “antibacterial activities”.

Take `CC/C=C\C/C=C\C/C=C\CCCCCCCC(=O)OC` [ALA-ME]: the antibacterial activity entry is “antibacterial activities”.

Turning to `CC/C=C\C/C=C\C/C=C\C/C=C\C/C=C\C/C=C\CCC(=O)OCC` [DHA-EE], the antibacterial activity entry was “antibacterial activities”.

In the case of `CC/C=C\C/C=C\C/C=C\C/C=C\C/C=C\C/C=C\CCC(=O)OC` [DHA-ME], the antibacterial activity entry was “antibacterial activities”.

As to `CC/C=C\C/C=C\C/C=C\C/C=C\C/C=C\CCCC(=O)OCC` [EPA-EE], the antibacterial activity result was “antibacterial activities”.

Regarding `CC/C=C\C/C=C\C/C=C\C/C=C\C/C=C\CCCC(=O)OC` [EPA-ME], the antibacterial activity result is given as “antibacterial activities”.
